Test results from patent US8802597B2, “Herbicidal pyrimidines” (E I du Pont de Nemours and Company, priority 2003, dated 2014).

Columns and labels:
Format in all cases: in vivo
[1] = system: barnyardgrass (Echinochloa crus-galli); assay: Test A pre/postemergence
Summary of the method: (§1)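 Seeds in loam–sand blend received preemergence directed soil spray and, concurrently, postemergence application (plants 2–10 cm, 1–2-leaf stage) of compound in non-phytotoxic solvent with surfactant. After about ten days in greenhouse, injury rated visually versus untreated controls, 0 (no effect) to 100 (complete control).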

[2] = system: crabgrass (Digitaria sanguinalis); assay: Test A pre/postemergence
Summary of the method: as §1

[3] = system: giant foxtail (Setaria faberi); assay: Test A pre/postemergence
Summary of the method: as §1

[4] = system: morningglory (Ipomoea spp.); assay: Test A pre/postemergence
Summary of the method: as §1

[5] = system: redroot pigweed (Amaranthus retroflexus); assay: Test A pre/postemergence
Summary of the method: as §1

[6] = system: velvetleaf (Abutilon theophrasti); assay: Test A pre/postemergence
Summary of the method: as §1

[7] = system: barnyardgrass (Echinochloa crus-galli); assay: Test E flooded paddy water application; settings: Flood, 21 days, scale 0 to 100 (0 no effect, 100 complete control)
Excerpt: (§2) Three plastic pots (ca. 16-cm diameter) per rate were partially filled with sterilized Tama silt loam soil comprising a 35:50:15 ratio of sand, silt and clay and 2.6% organic matter. Separate plantings for each of the three pots were as follows. Seeds from the U.S. of ducksalad (Heteranthera limosa), smallflower umbrella sedge (Cyperus difformis) and purple redstem (Ammannia coccinea), were planted into one 16-cm pot for each rate. Seeds from the U.S. of rice flatsedge (Cyperus iria), bearded (brdd.) sprangletop (Leptochloa fusca ssp. fascicularis), one stand of 9 or 10 water seeded rice seedlings (Oryza sativa cv. ‘Japonica-M202’), and one stand of 6 transplanted rice seedlings (Oryza sativa cv. ‘Japonica-M202’) were planted into one 16-cm pot for each rate. Seeds from the U.S. of barnyardgrass (Echinochloa crus-galli), late watergrass (Echinochloa oryzicola), early watergrass (Echinochloa oryzoides) and junglerice (Echinochloa colona) were planted into one 16-cm pot for each rate. Plantings were sequential so that crop and weed species were at the 2.0 to 2.5-leaf stage at time of treatment.
(§3) Potted plants were grown in a greenhouse with day/night temperature settings of 29.5/26.7° C., and supplemental balanced lighting was provided to maintain a 16-hour photoperiod. Test pots were maintained in the greenhouse until test completion.
(§4) At time of treatment, test pots were flooded to 3 cm above the soil surface, treated by application of test compounds directly to the paddy water, and then maintained at that water depth for the duration of the test. Effects of treatments on rice and weeds were visually evaluated by comparison to untreated controls after 21 days. Plant response ratings, summarized in Table E, are based on a scale of 0 to 100 where 0 is no effect and 100 is complete control. A dash (-) response means no test result.

[8] = system: bearded (brdd.) sprangletop (Leptochloa fusca ssp. fascicularis); assay: Test E flooded paddy water application; settings: Flood, 21 days, scale 0 to 100 (0 no effect, 100 complete control)
Excerpt: as §2, §3, §4

[9] = system: ducksalad (Heteranthera limosa); assay: Test E flooded paddy water application; settings: Flood, 21 days, scale 0 to 100 (0 no effect, 100 complete control)
Excerpt: as §2, §3, §4

[10] = system: early watergrass (Echinochloa oryzoides); assay: Test E flooded paddy water application; settings: Flood, 21 days, scale 0 to 100 (0 no effect, 100 complete control)
Excerpt: as §2, §3, §4

[11] = system: junglerice (Echinochloa colona); assay: Test E flooded paddy water application; settings: Flood, 21 days, scale 0 to 100 (0 no effect, 100 complete control)
Excerpt: as §2, §3, §4

[12] = system: late watergrass (Echinochloa oryzicola); assay: Test E flooded paddy water application; settings: Flood, 21 days, scale 0 to 100 (0 no effect, 100 complete control)
Excerpt: as §2, §3, §4

[13] = system: purple redstem (Ammannia coccinea); assay: Test E flooded paddy water application; settings: Flood, 21 days, scale 0 to 100 (0 no effect, 100 complete control)
Excerpt: as §2, §3, §4

[14] = system: rice flatsedge (Cyperus iria); assay: Test E flooded paddy water application; settings: Flood, 21 days, scale 0 to 100 (0 no effect, 100 complete control)
Excerpt: as §2, §3, §4

[15] = system: smallflower umbrella sedge (Cyperus difformis); assay: Test E flooded paddy water application; settings: Flood, 21 days, scale 0 to 100 (0 no effect, 100 complete control)
Excerpt: as §2, §3, §4

[16] = system: transplanted rice seedlings (Oryza sativa cv. ‘Japonica-M202’); assay: Test E flooded paddy water application; settings: Flood, 21 days, scale 0 to 100 (0 no effect, 100 complete control)
Excerpt: as §2, §3, §4

[17] = system: water seeded rice seedlings (Oryza sativa cv. ‘Japonica-M202’); assay: Test E flooded paddy water application; settings: Flood, 21 days, scale 0 to 100 (0 no effect, 100 complete control)
Excerpt: as §2, §3, §4

[18] = Postemergence, 125 g ai/ha, 0 to 100 scale (0 no effect, 100 complete control)
[19] = Postemergence, 500 g ai/ha, 0 to 100 scale (0 no effect, 100 complete control)
[20] = Preemergence, 125 g ai/ha, 0 to 100 scale where 0 is no effect and 100 is complete control, approximately ten days
[21] = Preemergence, 500 g ai/ha, 0 to 100 scale where 0 is no effect and 100 is complete control, approximately ten days

Nc1nc(-c2ccc(Cl)cc2)nc(C(=O)OCc2ccccc2)c1Cl [Compound 118]
Plant response rating, Barnyardgrass [1, 18]: 0
Plant response rating, Barnyardgrass [1, 19]: 0
Plant response rating, Barnyardgrass [1, 20]: 0
Plant response rating, Barnyardgrass [1, 21]: 10
Plant response rating, Crabgrass [2, 18]: 10
Plant response rating, Crabgrass [2, 19]: 20
Plant response rating, Crabgrass [2, 20]: 10
Plant response rating, Crabgrass [2, 21]: 25
Plant response rating, Foxtail, Giant [3, 18]: 0
Plant response rating, Foxtail, Giant [3, 19]: 15
Plant response rating, Foxtail, Giant [3, 20]: 0
Plant response rating, Foxtail, Giant [3, 21]: 15
Plant response rating, Morningglory [4, 18]: 65
Plant response rating, Morningglory [4, 19]: 70
Plant response rating, Morningglory [4, 20]: 0
Plant response rating, Morningglory [4, 21]: 0
Plant response rating, Pigweed [5, 18]: 60
Plant response rating, Pigweed [5, 19]: 75
Plant response rating, Pigweed [5, 20]: 10
Plant response rating, Pigweed [5, 21]: 55
Plant response rating, Velvetleaf [6, 18]: 90
Plant response rating, Velvetleaf [6, 19]: 95
Plant response rating, Velvetleaf [6, 20]: 0
Plant response rating, Velvetleaf [6, 21]: 15
Barnyardgrass plant response rating ([7]; 32 g ai/ha): 0
Barnyardgrass plant response rating ([7]; 64 g ai/ha): 0
Barnyardgrass plant response rating ([7]; 125 g ai/ha): 0
Barnyardgrass plant response rating ([7]; 250 g ai/ha): 0
Plant response rating, Barnyardgrass ([7]; 16 g ai/ha): 0
Sprangletop, Brdd. plant response rating ([8]; 32 g ai/ha): 0
Sprangletop, Brdd. plant response rating ([8]; 64 g ai/ha): 0
Sprangletop, Brdd. plant response rating ([8]; 125 g ai/ha): 70
Sprangletop, Brdd. plant response rating ([8]; 250 g ai/ha): 85
Plant response rating, Sprangletop, Brdd. ([8]; 16 g ai/ha): 0
Ducksalad plant response rating ([9]; 32 g ai/ha): 100
Ducksalad plant response rating ([9]; 64 g ai/ha): 100
Ducksalad plant response rating ([9]; 125 g ai/ha): 100
Ducksalad plant response rating ([9]; 250 g ai/ha): 100
Plant response rating, Ducksalad ([9]; 16 g ai/ha): 100
Watergrass, Early plant response rating ([10]; 32 g ai/ha): 0
Watergrass, Early plant response rating ([10]; 64 g ai/ha): 0
Watergrass, Early plant response rating ([10]; 125 g ai/ha): 0
Watergrass, Early plant response rating ([10]; 250 g ai/ha): 0
Plant response rating, Watergrass, Early ([10]; 16 g ai/ha): 0
Junglerice plant response rating ([11]; 32 g ai/ha): 40
Junglerice plant response rating ([11]; 64 g ai/ha): 45
Junglerice plant response rating ([11]; 125 g ai/ha): 65
Junglerice plant response rating ([11]; 250 g ai/ha): 65
Plant response rating, Junglerice ([11]; 16 g ai/ha): 0
Watergrass, Late plant response rating ([12]; 32 g ai/ha): 0
Watergrass, Late plant response rating ([12]; 64 g ai/ha): 0
Watergrass, Late plant response rating ([12]; 125 g ai/ha): 0
Watergrass, Late plant response rating ([12]; 250 g ai/ha): 0
Plant response rating, Watergrass, Late ([12]; 16 g ai/ha): 0
Redstem plant response rating ([13]; 32 g ai/ha): 20
Redstem plant response rating ([13]; 64 g ai/ha): 30
Redstem plant response rating ([13]; 125 g ai/ha): 50
Redstem plant response rating ([13]; 250 g ai/ha): 85
Plant response rating, Redstem ([13]; 16 g ai/ha): 0
Flatsedge, Rice plant response rating ([14]; 32 g ai/ha): 95
Flatsedge, Rice plant response rating ([14]; 64 g ai/ha): 95
Flatsedge, Rice plant response rating ([14]; 125 g ai/ha): 95
Flatsedge, Rice plant response rating ([14]; 250 g ai/ha): 100
Plant response rating, Flatsedge, Rice ([14]; 16 g ai/ha): 85
Sedge, Umbrella plant response rating ([15]; 32 g ai/ha): 95
Sedge, Umbrella plant response rating ([15]; 64 g ai/ha): 100
Sedge, Umbrella plant response rating ([15]; 125 g ai/ha): 100
Sedge, Umbrella plant response rating ([15]; 250 g ai/ha): 100
Plant response rating, Sedge, Umbrella ([15]; 16 g ai/ha): 85
Rice, Transplanted plant response rating ([16]; 32 g ai/ha): 0
Rice, Transplanted plant response rating ([16]; 64 g ai/ha): 0
Rice, Transplanted plant response rating ([16]; 125 g ai/ha): 0
Rice, Transplanted plant response rating ([16]; 250 g ai/ha): 0
Plant response rating, Rice, Transplanted ([16]; 16 g ai/ha): 0
Rice, Water Seeded plant response rating ([17]; 32 g ai/ha): 0
Rice, Water Seeded plant response rating ([17]; 64 g ai/ha): 0
Rice, Water Seeded plant response rating ([17]; 125 g ai/ha): 0
Rice, Water Seeded plant response rating ([17]; 250 g ai/ha): 0
Plant response rating, Rice, Water Seeded ([17]; 16 g ai/ha): 0
